Results reported in paper PMC8476055, “Synthesis and Biological Activity of Triterpene–Coumarin Conjugates” (Journal of Natural Products, 2021).
pIC50: −log10 of the molar value.

Columns and labels:
[1] = test system: HT29 human colon adenocarcinoma cells; assay: MTT cell proliferation assay, HT29 cells; type: cell-based; conditions: HT-29, 72 h treatment, untreated control = 100% viability, read-out: IC50, growth inhibition of HT29 cells
Experimental: (§1) These studies were performed using a 3-(4,5-dimethylthiazol-2-yl)-2,5-diphenyltetrazolium bromide (MTT) assay, with increasing concentration levels of each compound (0–200 μg/mL). Cell viability was determined after treatment for 72 h, by absorption of a formazan dye.
(§2) […] ATTC HTB-38), Hep G2 human hepatocyte carcinoma cells (ECACC 85011430), nontumor human epithelial lung fibroblast cells HPF (ScienCell catalog (cat.) no. 3300), nontumor rat ileum cells IEC-18 (ECACC no. 88011801), and nontumor human embryo liver cells (ECACC 89121403) were cultured in DMEM medium supplemented with 2 mM glutamine, 10% heat-inactivated fetal bovine serum (FCS), 10.000 units/mL penicillin, and […]. These cells were incubated at 37 °C in an atmosphere of 5% CO2 and 95% humidity. The culture media were changed every 48 h, and the confluent cultures were separated with a trypsin solution (0.25% EDTA). Subconfluent monolayer cells were used in all experiments. All cell lines used were provided by the cell bank of the University of Granada (Spain).
(§3) The effect of the synthesized compounds on the viability of tumor cells was assessed using an MTT assay, based on the ability of living cells to cleave the tetrazolium ring, thus producing formazan, which absorbs at 570 nm. […] For an evaluation of the cytotoxic effects of these compounds, the cells were seeded in 96-well plates at an initial density of 5 × 10^3 B16–F10 cells, 6 × 10^3 HT29 cells, 15 × 10^3 Hep G2 cells, 8 × 10^3 HPF cells, 15 × 10^3 IEC-18 cells, and 11 × 10^3 WRL68 cells, per well. After incubation for 24 h, the cells were treated with the synthesized compounds in triplicate, at different concentrations (0–200 μg/mL), and incubated for 72 h. Thereafter, 100 μL of MTT solution (0.5 mg/mL) were added to each well. After 2 h of incubation, the cells were washed twice with phosphate buffered saline (PBS), and the formazan was resuspended in 100 μL of DMSO. Relative cell viability, with respect to untreated control cells, was measured by absorbance at 550 nm on an ELISA plate reader (Tecan Sunrise MR20-301, TECAN, Austria). […] These experiments were measured and compared to the control after 72 h of treatment.

[2] = test system: Hep G2 human hepatocyte carcinoma cells; assay: MTT cell proliferation assay, Hep G2 cells; type: cell-based; conditions: HepG2, 72 h treatment, untreated control = 100% viability, read-out: IC50, growth inhibition of Hep G2 cells
Experimental: as §1, §2, §3

[3] = test system: B16–F10 murine melanoma cells; assay: MTT cell proliferation assay, B16–F10 cells; type: cell-based; conditions: Mus musculus, 72 h treatment, untreated control = 100% viability, read-out: IC50, growth inhibition of B16–F10 cells
Experimental: as §1, §2, §3

[4] = test system: B16-F10, HT29, and Hep G2 cancer cell lines; assay: MTT assay, statements over the three cancer cell lines; type: cell-based; conditions: 72 h, read-out: IC50 (cytotoxicity), cell line not distinguished
Experimental: as §1, with “dye. […] In these three cancer cell lines, the concentration of the compounds that reduced the response by half (IC50) was determined (Table 1).” for “dye.”
The effect of the synthesized compounds on the viability of tumor cells was assessed using an MTT assay, based on the ability of living cells to cleave the tetrazolium ring, thus producing formazan, which absorbs at 570 nm. The MA conjugates (1–12) were assayed against the selected cancer cell lines. For an evaluation of the cytotoxic effects of these compounds, the cells were seeded in 96-well plates at an initial density of 5 × 10^3 B16–F10 cells, 6 × 10^3 HT29 cells, 15 × 10^3 Hep G2 cells, 8 × 10^3 HPF cells, 15 × 10^3 IEC-18 cells, and 11 × 10^3 WRL68 cells, per well. After incubation for 24 h, the cells were treated with the synthesized compounds in triplicate, at different concentrations (0–200 μg/mL), and incubated for 72 h. […] Relative cell viability, with respect to untreated control cells, was measured by absorbance at 550 nm on an ELISA plate reader (Tecan Sunrise MR20-301, TECAN, Austria). […] These experiments were measured and compared to the control after 72 h of treatment.

Row | Structure (SMILES) | pIC50 [1] | pIC50 [3] | melting point [°C] | pIC50 [2] | pIC50 [4]
1 | Cc1cc(=O)oc2cc(NC(=O)[C@]34CCC(C)(C)C[C@H]3C3=CC[C@@H]5[C@@]6(C)C[C@@H](O)[C@H](O)C(C)(C)[C@@H]6CC[C@@]5(C)[C@]3(C)CC4)ccc12 [Compound 11, 2α,3β-dihydroxy-N-(4-methyl-2-oxo-2H-chromen-7-yl)-olean-12-en-28-amide] | < 5.00 | < 5.00 |  | < 5.00 | < 5.00
2 | Cc1cc(=O)oc2cc(NC(=O)[C@]34CCC(C)(C)C[C@H]3C3=CC[C@@H]5[C@@]6(C)C[C@@H](OC(=O)c7cc8ccccc8oc7=O)[C@H](OC(=O)c7cc8ccccc8oc7=O)C(C)(C)[C@@H]6CC[C@@]5(C)[C@]3(C)CC4)ccc12 [Compound 12, N-(4‴-Methyl-2‴-oxo-2‴H-chromen-7‴-yl)-2α,3β-bis((2′-oxo-2′H-chromene-3′-carbonyl)oxy)-olean-12-en-28-amide] | < 5.00 | < 5.00 | 206 to 208 | < 5.00 | < 5.00
3 | O=C(O)Cc1cc(=O)oc2cc(O)ccc12 [HCAA, 7-hydroxycoumarinyl-4-acetic acid, reference compound] | < 5.00 | < 5.00 |  | < 5.00 | 
4 | CC1(C)CC[C@]2(C(=O)O)CC[C@]3(C)C(=CC[C@@H]4[C@@]5(C)C[C@@H](O)[C@H](O)C(C)(C)[C@@H]5CC[C@]43C)[C@@H]2C1 [MA (I), 2α,3β-dihydroxyolean-12-en-28-oic acid, reference compound] | < 5.00 | < 5.00 |  | < 5.00 | 
5 | O=C(O)/C=C/c1ccc(O)cc1 [PCA, p-coumaric acid, reference compound] | < 5.00 | < 5.00 |  | < 5.00 | 

Now from value to compound, other results behind:

Row | pIC50 [1] | pIC50 [3] | melting point [°C] | Structure (SMILES) | pIC50 [2] | pIC50 [4]
6 | < 5.00 | < 5.00 |  | O=C(O)c1cc2ccccc2oc1=O [C3CA, coumarin-3-carboxylic acid, reference compound] | < 5.00 | 
7 | < 5.00 | < 5.00 | 73 to 75 | CC1(C)CC[C@]2(C(=O)NCCCCCCNC(=O)c3cc4ccccc4oc3=O)CC[C@]3(C)C(=CC[C@@H]4[C@@]5(C)C[C@@H](O)[C@H](O)C(C)(C)[C@@H]5CC[C@]43C)[C@@H]2C1 [Compound 2, 2α,3β-Dihydroxy-N-(6′-(2″-oxo-2″H-chromene-3″-carboxamido)hexyl)olean-12-en-28-amide] | < 5.00 | 
8 | < 5.00 | < 5.00 | 86 to 88 | CC1(C)CC[C@]2(C(=O)NCCCCCCCCCCNC(=O)c3cc4ccccc4oc3=O)CC[C@]3(C)C(=CC[C@@H]4[C@@]5(C)C[C@@H](O)[C@H](O)C(C)(C)[C@@H]5CC[C@]43C)[C@@H]2C1 [Compound 3, 2α,3β-Dihydroxy-N-(10′-(2″-oxo-2″H-chromene-3″-carboxamido)decyl)olean-12-en-28-amide] | < 5.00 | 
9 | < 5.00 | < 5.00 | 139 to 141 | CC1(C)CC[C@]2(C(=O)NCCCCCCNC(=O)Cc3cc(=O)oc4cc(O)ccc34)CC[C@]3(C)C(=CC[C@@H]4[C@@]5(C)C[C@@H](O)[C@H](O)C(C)(C)[C@@H]5CC[C@]43C)[C@@H]2C1 [Compound 5, 2α,3β-Dihydroxy-N-(6′-(2″-(7‴-hydroxy-2‴-oxo-2‴H-chromen-4‴-yl)acetamido)hexyl)olean-12-en-28-amide] | < 5.00 | 
10 | < 5.00 | < 5.00 | 120 to 122 | CC1(C)CC[C@]2(C(=O)NCCCCCCCCCCNC(=O)Cc3cc(=O)oc4cc(O)ccc34)CC[C@]3(C)C(=CC[C@@H]4[C@@]5(C)C[C@@H](O)[C@H](O)C(C)(C)[C@@H]5CC[C@]43C)[C@@H]2C1 [Compound 6, 2α,3β-Dihydroxy-N-(10′-(2″-(7‴-hydroxy-2‴-oxo-2‴H-chromen-4‴-yl)acetamido)decyl)olean-12-en-28-amide] | < 5.00 | 
11 | < 5.00 | < 5.00 | 76 to 78 | CC1(C)CC[C@]2(C(=O)NCCCCCCNC(=O)/C=C/c3ccc(O)cc3)CC[C@]3(C)C(=CC[C@@H]4[C@@]5(C)C[C@@H](O)[C@H](O)C(C)(C)[C@@H]5CC[C@]43C)[C@@H]2C1 [Compound 8, 2α,3β-Dihydroxy-N-(6′-((E)-3″-(4‴-hydroxyphenyl)acrylamido)hexyl)olean-12-en-28-amide] | < 5.00 | 
12 | < 5.00 | < 5.00 | 104 to 106 | CC1(C)CC[C@]2(C(=O)NCCCCCCCCCCNC(=O)/C=C/c3ccc(O)cc3)CC[C@]3(C)C(=CC[C@@H]4[C@@]5(C)C[C@@H](O)[C@H](O)C(C)(C)[C@@H]5CC[C@]43C)[C@@H]2C1 [Compound 9, 2α,3β-Dihydroxy-N-(10′-((E)-3″-(4‴-hydroxyphenyl)acrylamido)decyl)olean-12-en-28-amide] | < 5.00 | 
